The target in one assay is HDAC8 (Homo sapiens (Human), UniProt Q9BY41). Nature of the assay: In vitro enzyme inhibition assay - HDAC (HDAC-Glo I/II), HDAC8. Particulars: read-out: HDAC IC50 (nM) HDAC 8. The assay is classed as biochemical. The procedure:
2. In Vitro Enzyme Inhibition Assay—HDAC
The effect of the compound on the enzymatic activity of pan-HDAC and two isoforms (HDAC1 and HDAC8) was examined using the HDAC-Glo I/II Assay and Screening System assay to assess the level of inhibition of HDAC protease activity and selectivity in each isoform. The proteins and detection reagents were from the HDAC-Glo™ I/II Assay and Screening System (Promega). A 1 mM stock solution of the compound was prepared in DMSO and diluted in a 5-fold gradient to create a series of 8 concentrations, and a specific volume of the highest concentration was diluted 25 times with HDAC Buffer to obtain 4× working solution of the compound. […] The 384-well plate was then read on a multifunctional microplate reader, with the Luminescence channel selected to record Luminescence values (RLU). The inhibition rate was calculated using the following formula: […]
Note: ‘Negative’ refers to the group without the inhibitor; ‘Blank’ refers to the group without the enzyme.
The IC50 value was calculated by fitting the inhibition rate by GraphPad Prism software, employing log (inhibitor) vs. response-Variable Slope (four parameters) model.

The subject of another assay is NCI-H1417 cells. Nature of the assay: In vitro cell inhibition assay - H1417 cell proliferation (CellTiter-Glo). It is filed as cell-based. Particulars: Homo sapiens, NCI-H1417, H1417 small cell lung cancer cell proliferation. In a few lines:
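Cells exposed to 8 compound concentrations (5-fold dilutions) in BEGM with 10% FBS for 7 days at 37° C., 5% CO2. Viable cells measured by CellTiter-Glo luminescence; inhibition versus no-inhibitor and no-cell controls, IC50 fitted.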

The next assay addresses LSD1 (Homo sapiens (Human), UniProt O60341). Nature of the assay: In vitro enzyme inhibition assay - LSD1 (HTRF). The assay is classed as biochemical.
The next assay concerns the target pan-HDAC. The assay is described as follows: In vitro enzyme inhibition assay - HDAC (HDAC-Glo I/II), pan-HDAC. It is filed as biochemical. The method, boiled down: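 Eight compound concentrations (5-fold steps from a 1 mM DMSO stock) tested against pan-HDAC, HDAC1 and HDAC8 with HDAC-Glo I/II reagents, luminescence read-out. Percent inhibition normalized to no-inhibitor and no-enzyme wells; IC50 derived by four-parameter logistic fit.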

Another assay relates to NCI-H69 cells. Nature of the assay: In vitro cell inhibition assay - NCI-H69 cell proliferation (CellTiter-Glo). Particulars: Homo sapiens, NCI-H69, H69 small cell lung cancer cell proliferation. The assay is classed as cell-based. In a few lines: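 Cells seeded at 1×10^3 per well and incubated overnight at 37° C., 5% CO2, then treated with 8-point 5-fold compound dilutions in RPMI-640 with 20% FBS for 7 days. Viable cells measured by CellTiter-Glo luminescence; IC50 fitted from inhibition relative to no-inhibitor and no-cell controls.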

Structures can show the parent of a compound that is named as a salt.

Chain of HDAC8 (Q9BY41 whole entry): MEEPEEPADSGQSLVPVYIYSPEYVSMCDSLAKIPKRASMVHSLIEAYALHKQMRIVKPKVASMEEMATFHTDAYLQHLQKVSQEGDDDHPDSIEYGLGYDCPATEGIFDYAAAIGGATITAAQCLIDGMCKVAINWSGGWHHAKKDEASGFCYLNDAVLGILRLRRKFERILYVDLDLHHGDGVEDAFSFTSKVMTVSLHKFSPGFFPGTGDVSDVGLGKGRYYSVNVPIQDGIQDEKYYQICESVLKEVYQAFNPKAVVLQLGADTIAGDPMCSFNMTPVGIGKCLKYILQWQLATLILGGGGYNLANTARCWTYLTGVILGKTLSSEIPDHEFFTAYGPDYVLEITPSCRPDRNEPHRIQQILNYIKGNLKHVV

For `COc1cc(N2CCC(N)CC2)nc(-c2ccc(C#N)c(F)c2)c1-c1ccc(OCCCCCCC(=O)NO)c(O)c1` [Example 27, 7-(4-(6-(4-aminopiperidin-1-yl)-2-(4-cyano-3-fluorophenyl)-4-methoxypyridin-3-yl)-2-hydroxyphenoxy)-N-hydroxyheptanamide hydrochloride], the concentration for half-maximal inhibition (IC50) on HDAC8 is 186 nM; in the assay on NCI-H1417 cells, 48.9 nM; against LSD1 it was 1.38 nM; against pan-HDAC, 134 nM.

As to `N#Cc1ccc(-c2cc(C(=O)N3C4CCC3CC(N)C4)sc2-c2ccc(OCCCCCCC(=O)NO)c(O)c2)cc1F` (stereo not drawn) [Example 32, 7-(4-(5-(3-amino-8-azabicyclo[3.2.1]octane-8-carbonyl)-3-(4-cyano-3-fluorophenyl)thiophen-2-yl)-2-hydroxyphenoxy)-N-hydroxyheptanamide hydrochloride], the IC50 at HDAC8 was determined as 279 nM; with NCI-H1417 cells, 54.7 nM; at LSD1, 0.35 nM; against pan-HDAC it was 14 nM.

With `COc1ccc(-c2cnc(N3CCC(N)(CCc4ccc(/C=C/C(=O)NO)cc4)CC3)c(C#N)c2-c2ccc(C#N)c(F)c2)cc1O` [Example 86, (E)-3-(4-(2-(4-amino-1-(3-cyano-4-(4-cyano-3-fluorophenyl)-5-(3-hydroxy-4-methoxyphenyl)pyridin-2-yl)piperidin-4-yl)ethyl)phenyl)-N-hydroxyacrylamide formate], the IC50 was 145 nM in the assay on NCI-H69 cells; 578 nM at HDAC8; 15.4 nM in the assay with NCI-H1417 cells; 9.46 nM on LSD1; 13.8 nM on pan-HDAC.

Turning to `CN(C)c1ccc(-c2cnc(N3CCC(NCc4ccc(/C=C/C(=O)NO)cc4)CC3)c(C#N)c2-c2ccc(C#N)c(F)c2)cc1O` [Example 153, (E)-3-(4-(((1-(3-Cyano-4-(4-cyano-3-fluorophenyl)-5-(4-(dimethylamino)-3-hydroxyphenyl)pyridin-2-yl)piperidin-4-yl)amino)methyl)phenyl)-N-hydroxyacrylamide formate], the IC50 with NCI-H69 cells worked out at 65.5 nM; at HDAC8 it was 400 nM; in the assay with NCI-H1417 cells, 6.21 nM; at LSD1, 0.74 nM; against pan-HDAC, 5.49 nM.

Consider `COc1ccc(-c2cnc(N3CCC(NCC4CC=C(/C=C/C(=O)NO)CC4)CC3)c(C#N)c2-c2ccc(C#N)c(F)c2)cc1O` (stereo not drawn) [Example 155, (E)-3-(4-(((1-(3-Cyano-4-(4-cyano-3-fluorophenyl)-5-(3-hydroxy-4-methoxyphenyl)pyridin-2-yl)piperidin-4-yl)amino)methyl)cyclohex-1-en-1-yl)-N-hydroxyacrylamide formate], for which the IC50 in the assay with NCI-H69 cells worked out at 314 nM; at HDAC8, 23.7 nM; in the assay on NCI-H1417 cells it was 11.5 nM; against LSD1, 0.58 nM; against pan-HDAC it was 20 nM.

Consider `COc1cc(O)c(-c2cnc(N3CCC(NCc4ccc(/C=C/C(=O)NO)cc4)CC3)c(C#N)c2-c2ccc(C#N)c(F)c2)cc1O` [Example 158, (E)-3-(4-(((1-(3-Cyano-4-(4-cyano-3-fluorophenyl)-5-(2,5-dihydroxy-4-methoxyphenyl)pyridin-2-yl)piperidin-4-yl)amino)methyl)phenyl)-N-hydroxyacrylamide trifluoroacetate], for which the IC50 in the assay with NCI-H69 cells was 250 nM; on HDAC8, 87.8 nM; in the assay on NCI-H1417 cells, 93.6 nM; at LSD1, 0.73 nM; at pan-HDAC, 0.61 nM.

In the case of `COc1ccc(-c2cnc(N3CCC(NCc4ccc(/C=C/C(=O)NO)nn4)CC3)c(C#N)c2-c2ccc(C#N)c(F)c2)cc1O` [Example 160, (E)-3-(6-(((1-(3-Cyano-4-(4-cyano-3-fluorophenyl)-5-(3-hydroxy-4-methoxyphenyl)pyridin-2-yl)piperidin-4-yl)amino)methyl)pyridazin-3-yl)-N-hydroxyacrylamide formate], the 50% inhibitory concentration (IC50) in the assay on NCI-H69 cells worked out at 80.6 nM; on HDAC8, 184 nM; with NCI-H1417 cells, 5.59 nM; against LSD1 it was 1.12 nM; at pan-HDAC, 1.48 nM.

With `Cc1c(O)cc(-c2cnc(N3CCC(NCc4ccc(/C=C/C(=O)NO)cc4)CC3)c(C#N)c2-c2ccc(C#N)c(F)c2)cc1F` [Example 161, (E)-3-(4-(((1-(3-Cyano-4-(4-cyano-3-fluorophenyl)-5-(3-fluoro-5-hydroxy-4-methylphenyl)pyridin-2-yl)piperidin-4-yl)amino)methyl)phenyl)-N-hydroxyacrylamide formate], the IC50 with NCI-H69 cells is 65 nM; at HDAC8, 304 nM; in the assay on NCI-H1417 cells it was 3.13 nM; on LSD1, 0.58 nM; on pan-HDAC it was 6.83 nM.

Consider `COc1ccc(-c2cnc(N3CCC(NCCOc4ccc(C(=O)NO)cc4)CC3)c(C#N)c2-c2ccc(C#N)c(F)c2)cc1O` [Example 164, 4-(2-[(1-(3-Cyano-4-(4-cyano-3-fluorophenyl)-5-(3-hydroxy-4-methoxyphenyl)pyridin-2-yl)piperidin-4-yl)amino]ethoxy)-N-hydroxybenzamide formate], for which the IC50 in the assay with NCI-H69 cells is 432 nM; at HDAC8, 332 nM; with NCI-H1417 cells, 2.66 nM; on LSD1, 0.44 nM; at pan-HDAC, 38.1 nM.

For the compound `COc1cc(OC)c(-c2cnc(N3CCC(NCc4ccc(/C=C/C(=O)NO)cc4)CC3)c(C#N)c2-c2ccc(C#N)c(F)c2)cc1O` [Example 165, (E)-3-(4-(((1-(3-Cyano-4-(4-cyano-3-fluorophenyl)-5-(5-hydroxy-2,4-dimethoxyphenyl)pyridin-2-yl)piperidin-4-yl)amino)methyl)phenyl-N-hydroxyacrylamide hydrochloride], the IC50 with NCI-H69 cells was found to be 114 nM; at HDAC8 it was 145 nM; in the assay with NCI-H1417 cells, 11.4 nM; against LSD1 it was 1.35 nM; against pan-HDAC, 7.31 nM.

For `COc1ccc(-c2cnc(N3CCC(NCc4ccc(/C=C/C(=O)NO)cc4)CC3)c(C#N)c2-c2ccc(C#N)c(O)c2)cc1O` [Example 166, (E)-3-(4-(((1-(3-Cyano-4-(4-cyano-3-hydroxyphenyl)-5-(3-hydroxy-4-methoxyphenyl)pyridin-2-yl)piperidin-4-yl)amino)methyl)phenyl-N-hydroxyacrylamide hydrochloride], the IC50 was 208 nM in the assay on NCI-H69 cells; 64 nM at HDAC8; 61.6 nM with NCI-H1417 cells; 15.1 nM against LSD1; 2.27 nM at pan-HDAC.

With `COc1c(O)cc(-c2cnc(N3CCC(NCc4ccc(/C=C/C(=O)NO)cc4)CC3)c(C#N)c2-c2ccc(C#N)c(F)c2)cc1F` [Example 168, (E)-3-(4-(((1-(3-Cyano-4-(4-cyano-3-fluorophenyl)-5-(3-fluoro-5-hydroxy-4-methoxyphenyl)pyridin-2-yl)piperidin-4-yl)amino)methyl)phenyl)-N-hydroxyacrylamide formate], the IC50 was found to be 65.6 nM in the assay with NCI-H69 cells; 250 nM on HDAC8; 5.23 nM with NCI-H1417 cells; 1.34 nM at LSD1; 7.35 nM at pan-HDAC.

`COc1ccc(-c2cnc(N3CCC(NCc4ccc5sc(C(=O)NO)cc5c4)CC3)c(C#N)c2-c2ccc(C#N)c(F)c2)cc1O` [Example 173, 5-(((1-(3-Cyano-4-(4-cyano-3-fluorophenyl)-5-(3-hydroxy-4-methoxyphenyl)pyridin-2-yl)piperidin-4-yl)amino)methyl)-N-hydroxybenzo[b] thiophene-2-carboxamide formate]: the IC50 amounted to 613 nM in the assay with NCI-H69 cells; 252 nM on HDAC8; 2.23 nM with NCI-H1417 cells; 0.82 nM at LSD1; 114 nM on pan-HDAC.

The values above are taken from patent publication US20250304549A1, “HYDROXYAMIDE DERIVATIVE AND USE THEREOF” (SICHUAN HUIYU PHARMACEUTICAL CO., LTD., priority 2022, published 2025).
